Several values for one entry are separate records, joined by “and”; a condition that tells them apart may be missing. Identical values can stand only once.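 The compound was tested at five concentrations on cells cultured in 96-well plates, with a 48-hour exposure period. Abbreviation: GI50, concentration required for 50% inhibition of growth. TGI is the concentration that stops growth completely.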
Assays:
Assay in all cases: growth of human tumour cells (NCI), 48 h
[1] = tested on: SK-MEL-28 melanoma
[2] = tested on: HOP-92 NSCLC
[3] = tested on: NCI-H460 lung
[4] = tested on: SK-MEL-2 melanoma
[5] = tested on: A549 NSCLC
[6] = tested on: 786-0 renal
[7] = tested on: K-562 leukemia
[8] = tested on: MCF7 breast
[9] = tested on: NCI-H226 lung
[10] = tested on: SN12C renal

| Structure (SMILES) | GI50 [1] | TGI [1] | GI50 [2] | TGI [2] | GI50 [3] | TGI [3] | GI50 [4] | TGI [4] | GI50 [5] | TGI [5] | GI50 [6] | TGI [6] | GI50 [7] | TGI [7] | GI50 [8] | TGI [8] | GI50 [9] | TGI [9] | GI50 [10] | TGI [10] |
| --- | --- | --- | --- | --- | --- | --- | --- | --- | --- | --- | --- | --- | --- | --- | --- | --- | --- | --- | --- | --- |
| C/C1=C\CC[C@@](C)(O)[C@H]2C[C@H](CC/C(C)=C/CC1)C1(CC1)C(=O)O2 | 45.3 µM | > 100 µM | 16 µM | 33.3 µM | 19.6 µM | 45.7 µM | 39.1 µM | > 100 µM | 17.4 µM | 32.3 µM | 16.4 µM | 30.6 µM | 13.2 µM | 29 µM | 21 µM | 57.4 µM | 21.2 µM | 46.5 µM | 20.3 µM | 43.2 µM |
| COC(=O)Nc1nc2c(OC)c(OC)c(OC)cc2[nH]1 | 52.4 µM | > 100 µM | 20.9 µM | > 91.4 µM | 14.6 µM | > 100 µM | 15.1 µM | > 91.6 µM | 14.8 µM | > 100 µM | 66.4 µM | > 100 µM | 5.43 µM | > 100 µM | 9.38 µM | > 100 µM | 61.4 µM | > 100 µM | 74 µM | > 100 µM |
| CC(C)(C)c1ccc(C(=O)N/N=C/c2ccc(O)cc2O)cc1 | 0.595 µM | 13.9 µM | 1.65 µM | 13.7 µM | 0.32 µM | 1.88 µM | 1.89 µM | 16 µM | 0.594 µM | 35 µM | 0.53 µM | 3.3 µM | 0.476 µM | 20.1 µM | 0.322 µM | 12.7 µM | 0.412 µM | 5.75 µM | 0.801 µM | 13 µM |
| NC(=O)Nc1ccc2ncnc(Nc3ccc(Cl)cc3)c2c1 | 30.2 µM | > 100 µM | – | – | 24.5 µM | > 100 µM | 18.5 µM | 46.7 µM | 18.4 µM | > 100 µM | 19.3 µM | 91.7 µM | 28.9 µM | > 100 µM | 26.9 µM | > 100 µM | 22.9 µM | > 100 µM | 11.4 µM | > 70.7 µM |
| NC1=CC(=O)C(=O)c2cccnc21 | 2.6 µM | 6.38 µM | – | – | 2.63 µM | 7.38 µM | 3.85 µM | 15.6 µM | 3.55 µM | 15.5 µM | 14.8 µM | 28 µM | 3.03 µM | 10.6 µM | 3.74 µM | 16.8 µM | 14.7 µM | 42.5 µM | 3.11 µM | 13.4 µM |
| OC(COc1ccc(Cl)cc1Cl)CN1CCCC1 (centres undefined) | – | > 100 µM | – | > 100 µM | – | > 100 µM | – | > 100 µM | – | > 100 µM | – | > 100 µM | – | > 100 µM | – | > 100 µM | – | > 100 µM | – | > 100 µM |
| CC12C=CC(C)(O1)C1C2c2ccccc2S1(=O)=O (centres undefined) | 91.9 µM | > 100 µM | 58.6 µM | > 100 µM | > 100 µM | > 100 µM | – | – | > 100 µM | > 100 µM | > 100 µM | > 100 µM | 69.7 µM | > 100 µM | 50.4 µM | > 100 µM | 42 µM | > 100 µM | 64.4 µM | > 100 µM |
| CCOC(=O)Nc1nc2c(F)c(F)c(F)cc2s1 | > 100 µM | > 100 µM | 15.4 µM | 97.5 µM | 71.9 µM | > 100 µM | 53.1 µM | > 100 µM | > 100 µM | > 100 µM | 84.3 µM | > 100 µM | > 100 µM | > 100 µM | > 100 µM | > 100 µM | 46 µM | > 100 µM | > 100 µM | > 100 µM |
| COc1cc2c(cc1OCCCCCCNC(=O)c1cc3ccccc3[nH]1)N=CC1CCCN1C2=O (centres undefined) | > 100 µM | > 100 µM | 25.3 µM | > 100 µM | 16.8 µM | 62.7 µM | – | – | 39 µM | > 100 µM | > 100 µM | > 100 µM | 30.5 µM | > 100 µM | 27.3 µM | > 100 µM | 58 µM | > 100 µM | 65 µM | > 100 µM |
| COc1cc(Nc2ncc3c(n2)-c2ccc(Cl)cc2C(c2c(F)cccc2OC)=NC3)ccc1C(=O)O | 13.2 µM | > 92 µM | 2.35 µM | 14.1 µM | 0.0412 µM | > 83.6 µM | 13.4 µM | 38 µM | 0.505 µM | 37.8 µM | 4.4 µM | > 83.6 µM | 5.24 µM | > 100 µM | 0.0469 µM | > 100 µM | 2.06 µM | 18.1 µM | 4.04 µM | > 90.4 µM |
| COc1cc(/C=C/C(=O)c2c(C)n([O-])c3cc(C)c(C)cc3[n+]2=O)cc(OC)c1OC | 19 µM | 46.7 µM | 18.2 µM | 42.5 µM | 10.9 µM | 26.3 µM | 16.4 µM | 32.9 µM | – | – | 19.2 µM | 46.1 µM | 18.7 µM | > 100 µM | 9.62 µM | 25.1 µM | 21.6 µM | 55.5 µM | 17.5 µM | 42.7 µM |
| COC(=O)[C@]12CC[C@@H](C)[C@H](C)[C@@H]1C1=CC[C@@H]3[C@@]4(C)C(c5ncon5)=C[C@@](C)(CO)C4=CC[C@@]3(C)[C@]1(C)CC2 | – | – | 1.98 µM | 4.04 µM | 1.97 µM | 3.95 µM | 2.05 µM | 4.22 µM | 4.48 µM | 15.5 µM | 2.91 µM | 8.58 µM | 2.22 µM | 4.82 µM | 1.42 µM | 2.9 µM | 1.99 µM | 4.4 µM | 3.05 µM | 10.6 µM |
| Cc1cc2nc3ccc(N=Nc4ccc(N(C)C)cc4)cc3n(-c3ccccc3)c-2cc1=N | 0.0573 µM | 0.241 µM | 0.0325 µM | 0.386 µM | 0.0146 µM | 0.0527 µM | 0.058 µM | 0.317 µM | 0.00894 µM | 0.264 µM | 0.0778 µM | 0.505 µM | 0.00686 µM | – | 0.00199 µM | 0.0143 µM | – | – | – | – |
| CSc1nc(Cl)c(Br)c(Nc2c[nH]c(=O)[nH]c2=O)n1 | – | 95.8 µM | – | 31.8 µM | – | – | – | 44.4 µM | – | 89.5 µM | – | 27.1 µM | – | > 100 µM | – | > 100 µM | – | 41.7 µM | – | 35.3 µM |
| N/C(=N\OC(=O)NC(Cl)=C(Cl)Cl)c1cc(C(F)(F)F)cc(C(F)(F)F)c1 | – | 32.8 µM | – | 35.1 µM | – | 36.8 µM | – | – | – | 30.4 µM | – | 31.2 µM | – | – | – | > 100 µM | – | 55.9 µM | – | 60.8 µM |
| COc1ccc(S(=O)(=O)O)cc1NS(=O)(=O)c1ccc(C)cc1 | – | > 100 µM | – | – | – | > 100 µM | – | > 100 µM | – | > 100 µM | – | > 100 µM | – | > 100 µM | – | > 100 µM | – | > 100 µM | – | > 100 µM |
| CC(C)[C@@H](C(=O)O[C@@H]1/C=C/C(=O)O[C@@H](C)CCC/C=C/[C@@H]2C[C@H](O)C[C@H]21)[N+](C)(C)C | > 100 µM | > 100 µM | – | – | > 100 µM | > 100 µM | > 100 µM | > 100 µM | > 100 µM | > 100 µM | > 100 µM | > 100 µM | > 100 µM | > 100 µM | > 100 µM | > 100 µM | > 100 µM | > 100 µM | > 100 µM | > 100 µM |
| COc1ccc(/C=C/c2nc(N3CCOCC3)c3cc(F)c(F)cc3n2)cc1OC | 5.53 µM | > 100 µM | 4.13 µM | 87.2 µM | 5.86 µM | > 100 µM | 9.48 µM | > 100 µM | 5.87 µM | > 100 µM | 4.44 µM | > 100 µM | – | – | 2.54 µM | > 100 µM | 3.07 µM | > 100 µM | 5.36 µM | > 100 µM |
| O=C1C=C(N2CC2)c2ccccc2C1=O | 1.77 µM | 3.17 µM | 1.63 µM | 3.41 µM | 1.71 µM | 3.89 µM | 2.28 µM | 4.34 µM | 2.07 µM | 4.7 µM | 1.83 µM | 3.28 µM | 2.6 µM | 5.66 µM | 1.48 µM | 3.76 µM | – | – | 1.76 µM | 3.22 µM |
| CC1=C[C@H]2c3c(c(O)c(O)c4oc5cc(O)cc(O)c5c(=O)c34)[C@H](c3cc(O)c(O)c4oc5cc(O)cc(O)c5c(=O)c34)[C@H]2C(C)(C)C1 | 1.5 µM and 1.76 µM | 3.44 µM and 4.28 µM | 1.94 µM and 1.1 µM | 4.73 µM and 3.33 µM | – | – | 2.41 µM | 5.17 µM and 6.41 µM | 0.686 µM and 1.67 µM | 6.17 µM and 24.9 µM | 2.43 µM and 2.16 µM | 6.66 µM and 6.33 µM | 0.477 µM and 0.536 µM | 10.3 µM and > 100 µM | 0.725 µM | 3.88 µM | 2.16 µM and 1.99 µM | 5.88 µM and 5.25 µM | 1.84 µM and 2.11 µM | 6.88 µM and 8.24 µM |
| COC(=O)C1CC2(c3ccc(C)cc3)C(c3ccc(C)cc3)=C(c3ccc(C)cc3)C1(c1ccc(C)cc1)S2=O (centres undefined) | > 100 µM | > 100 µM | – | – | > 100 µM | > 100 µM | > 100 µM | > 100 µM | > 100 µM | > 100 µM | 70.8 µM | > 100 µM | > 100 µM | > 100 µM | > 100 µM | > 100 µM | > 100 µM | > 100 µM | > 100 µM | > 100 µM |

From PubChem BioAssay (NCI)
